Data as given in patent publication US4083947A, “Organ visualization” (The Radiochemical Centre Limited, priority 1975, dated 1978).

Experiment: Tissue distribution of selenium-75-labelled sterols in rats, sixth day post-injection
Format: in vivo, rats of the C.F.Y. strain
Details: tail vein, dose: 1, 7: 40 μCi, 6: 50 μCi, 3: 30 μCi, 4: 1.5 μCi, 5: 10 μCi, 8: 6.3 μCi; for % dose kg./g. in Ovaries: female rats; for % dose kg./g. in Adrenals / % dose kg./g. in Blood / % dose kg./g. in Kidneys / % dose kg./g. in Liver / % dose kg./g. in Muscle: male and female rats; for % dose kg./g. in Testes: male rats; for Concentration Ratio; Adrenals: Kidneys / Concentration Ratio; Adrenals: Liver / Concentration Ratio; Adrenals: Muscle / Concentration Ratio; Adrenals: Ovaries / Concentration Ratio; Adrenals: Testes / Concentration Ratio; Adrenals: Blood: rats; for Concentration Ratio; Adrenals: Blood: 8640 min
Protocol: The tissue distribution and target to non-target concentration ratios for seven compounds were studied in male and female rats (150-180 g) of the C.F.Y. strain. Each compound (in a volume of 0.3ml) was injected via the tail vein into two male and two female rats. The animals were then housed in separate metabolism cages prior to sacrifice and dissecting on the sixth day post-injection.

With CCCC[75Se]C[C@@H]1C[C@@H]2[C@H](CC[C@]3(C)[C@@H]([C@H](C)CCCC(C)C)CC[C@@H]23)C2=C1C[C@@H](O)CC2 [Example 3, 6β-butylselenomethyl-19-norcholest-5(10)-en-3β-ol-^75 Se] the “% dose kg./g. in Ovaries” value was 2.553 % dose kg./g, the “% dose kg./g. in Adrenals” value was 7.563 % dose kg./g and the “% dose kg./g. in Blood” value was 0.009 % dose kg./g. For the same molecule, the “% dose kg./g. in Kidneys” value was 0.052 % dose kg./g, the “% dose kg./g. in Liver” value was 0.096 % dose kg./g and the “% dose kg./g. in Muscle” value was 0.012 % dose kg./g. For the same molecule, the “% dose kg./g. in Testes” value was 0.023 % dose kg./g, the “Concentration Ratio; Adrenals: Kidneys” value was 144.8 and the “Concentration Ratio; Adrenals: Liver” value was 79.0. For the same molecule, the “Concentration Ratio; Adrenals: Muscle” value was 809.6, the “Concentration Ratio; Adrenals: Ovaries” value was 4.0 and the “Concentration Ratio; Adrenals: Testes” value was 268.3. For the same molecule, the “Concentration Ratio; Adrenals: Blood” value was 581.9.
With CC(C)CCC[C@@H](C)[C@H]1CC[C@H]2[C@@H]3C[C@@H](C[75Se](C)=O)C4=C(CC[C@H](O)C4)[C@H]3CC[C@]12C (stereo partly drawn) [Example 7, 6β-methylselenomethyl-19-norcholest-5(10)-en-3β-olselenoxide-^75 Se] the “% dose kg./g. in Ovaries” value was 0.817 % dose kg./g, the “% dose kg./g. in Adrenals” value was 4.284 % dose kg./g and the “% dose kg./g. in Blood” value was 0.022 % dose kg./g. The “% dose kg./g. in Kidneys” value was 0.087 % dose kg./g, the “% dose kg./g. in Liver” value was 0.091 % dose kg./g and the “% dose kg./g. in Muscle” value was 0.016 % dose kg./g. The “% dose kg./g. in Testes” value was 0.046 % dose kg./g, the “Concentration Ratio; Adrenals: Kidneys” value was 49.5 and the “Concentration Ratio; Adrenals: Liver” value was 48.3. For the same molecule, the “Concentration Ratio; Adrenals: Muscle” value was 274, the “Concentration Ratio; Adrenals: Ovaries” value was 5.1 and the “Concentration Ratio; Adrenals: Testes” value was 95.2. For the same molecule, the “Concentration Ratio; Adrenals: Blood” value was 202.
For CC(C)CCC[C@@H](C)[C@H]1CC[C@H]2[C@@H]3C[C@@H](C[75Se]c4ccccc4)C4=C(CC[C@H](O)C4)[C@H]3CC[C@]12C [Example 8, 6β-phenylselenomethyl-19-norcholest-5(10)-en-3β-ol-^75 Se], the “% dose kg./g. in Ovaries” value was 2.578 % dose kg./g, the “% dose kg./g. in Adrenals” value was 5.934 % dose kg./g and the “% dose kg./g. in Blood” value was 0.021 % dose kg./g. The “% dose kg./g. in Kidneys” value was 0.062 % dose kg./g, the “% dose kg./g. in Liver” value was 0.144 % dose kg./g and the “% dose kg./g. in Muscle” value was 0.015 % dose kg./g. The “% dose kg./g. in Testes” value was 0.039 % dose kg./g, the “Concentration Ratio; Adrenals: Kidneys” value was 109.1 and the “Concentration Ratio; Adrenals: Liver” value was 40.0. The “Concentration Ratio; Adrenals: Muscle” value was 418.9, the “Concentration Ratio; Adrenals: Ovaries” value was 3.62 and the “Concentration Ratio; Adrenals: Testes” value was 171.2. For the same molecule, the “Concentration Ratio; Adrenals: Blood” value was 285.8.
In the case of C[75Se]C[C@@H]1C[C@@H]2[C@H](CC[C@]3(C)[C@@H]([C@H](C)CCCC(C)C)CC[C@@H]23)C2=C1C[C@@H](OC(C)=O)CC2 [Example 6, 6β-methylselenomethyl-19-norcholest-5(10)-en-3β-ol-acetate-^75 Se], the “% dose kg./g. in Ovaries” value is reported as 3.232 % dose kg./g, the “% dose kg./g. in Adrenals” value is reported as 12.561 % dose kg./g and the “% dose kg./g. in Blood” value is reported as 0.025 % dose kg./g. The “% dose kg./g. in Kidneys” value was 0.108 % dose kg./g, the “% dose kg./g. in Liver” value was 0.074 % dose kg./g and the “% dose kg./g. in Muscle” value was 0.022 % dose kg./g. For the same molecule, the “% dose kg./g. in Testes” value was 0.041 % dose kg./g, the “Concentration Ratio; Adrenals: Kidneys” value was 116.0 and the “Concentration Ratio; Adrenals: Liver” value was 161.1. For the same molecule, the “Concentration Ratio; Adrenals: Muscle” value was 536.3, the “Concentration Ratio; Adrenals: Ovaries” value was 5.7 and the “Concentration Ratio; Adrenals: Testes” value was 166.4. For the same molecule, the “Concentration Ratio; Adrenals: Blood” value was 469.2.
In the case of CC(C)CCC[C@@H](C)[C@H]1CC[C@H]2[C@@H]3C[C@@H](C[75Se]Cc4ccccc4)C4=C(CC[C@H](O)C4)[C@H]3CC[C@]12C [Example 5, 6β-benzylselenomethyl-19-norcholest-5(10)-en-3β-ol-^75 Se], the “% dose kg./g. in Ovaries” value is reported as 2.425 % dose kg./g, the “% dose kg./g. in Adrenals” value is reported as 5.286 % dose kg./g and the “% dose kg./g. in Blood” value is reported as 0.042 % dose kg./g. For the same molecule, the “% dose kg./g. in Kidneys” value was 0.083 % dose kg./g, the “% dose kg./g. in Liver” value was 0.393 % dose kg./g and the “% dose kg./g. in Muscle” value was 0.015 % dose kg./g. The “% dose kg./g. in Testes” value was 0.042 % dose kg./g, the “Concentration Ratio; Adrenals: Kidneys” value was 63.4 and the “Concentration Ratio; Adrenals: Liver” value was 13.4. For the same molecule, the “Concentration Ratio; Adrenals: Muscle” value was 355.3, the “Concentration Ratio; Adrenals: Ovaries” value was 2.6 and the “Concentration Ratio; Adrenals: Testes” value was 101.4. For the same molecule, the “Concentration Ratio; Adrenals: Blood” value was 126.3.
For CC(C)CCC[C@@H](C)[C@H]1CC[C@H]2[C@@H]3C[C@@H](C[75Se]C4CCCCC4)C4=C(CC[C@H](O)C4)[C@H]3CC[C@]12C [Example 4, 6β-cyclohexylselenomethyl-19-norcholest-5(10)-en-3β-ol-^75 Se], the “% dose kg./g. in Ovaries” value was 2.568 % dose kg./g, the “% dose kg./g. in Adrenals” value was 3.609 % dose kg./g and the “% dose kg./g. in Blood” value was 0.026 % dose kg./g. For the same molecule, the “% dose kg./g. in Kidneys” value was 0.038 % dose kg./g, the “% dose kg./g. in Liver” value was 0.148 % dose kg./g and the “% dose kg./g. in Muscle” value was 0.012 % dose kg./g. For the same molecule, the “% dose kg./g. in Testes” value was 0.034 % dose kg./g, the “Concentration Ratio; Adrenals: Kidneys” value was 75.1 and the “Concentration Ratio; Adrenals: Liver” value was 24.9. For the same molecule, the “Concentration Ratio; Adrenals: Muscle” value was 303.1, the “Concentration Ratio; Adrenals: Ovaries” value was 1.6 and the “Concentration Ratio; Adrenals: Testes” value was 89.8. The “Concentration Ratio; Adrenals: Blood” value was 137.4.
